From patent publication US5591735A, “Androstane derivatives substituted by a quaternary ammonium group in 16-position, pharmaceutical compositions containing them and process for preparing same” (Marvishi Pharmaceutical Co., Ltd., priority 1992, dated 1997)
Counter-ions that a name gives are not always drawn.

Experiments:
[1] = system: phrenic nerve-hemidiaphragm preparation; test: In vitro muscle relaxing effect on the isolated phrenic nerve-hemidiaphragm preparation of guinea-pigs; design: species or system guinea-pig; settings: for IC90: read-out: ED90 guinea-pig
[2] = system: phrenic nerve-hemidiaphragm preparation; test: In vitro muscle relaxing effect on the isolated phrenic nerve-hemidiaphragm preparation of rats; design: species or system rat; settings: for IC90: read-out: ED90 rat
neuromuscular block = test: Comparison of the effects of 2 × ED90 doses in beagle dog; type: in vivo; design: Tetanic fade: unit not given here; settings: mean ± SEM; for Recovery 0-75% / Recovery index / Time to max. recovery: P <0.02; for T4/T1 at max. recovery: P <0.05; for Clinical duration / Onset time / Time to 80% block / ED90 / ED95: n = 8; for Clinical duration / Onset time: P <0.001; for Time to 80% block: P <0.01; for ED90 / ED95: Canis lupus familiaris, beagle dog
Source text: Comparison of the effects of 2 × ED90 doses in beagle dog (no.
animals in parentheses). Mean ± SEM.

[3] = system: anterior tibial muscle (musculus tibialis anterior); test: In vivo effect on the anterior tibial muscle of the guinea-pig; settings: for time for the 75% neuromuscular block to decrease to 25%: 2×ED90 doses; for ED50 / ED90: Cavia porcellus, iv; for Clinical duration / Onset time: 2 × ED90 dose; for Clinical duration / Recovery 25%-75% / Onset time: guinea-pig, mean ± SEM (n = 4); for Onset time: time required to 95% block
[4] = system: phrenic nerve-hemidiaphragm preparation; test: Reversal of the in vitro neuromuscular block (wash-out, neostigmine, edrophonium); design: species or system rats and guinea-pigs
vagus nerve = test: Antivagal effect on anesthetized cat
vagus = settings: 4×ED90 dose; cited from earlier work
[5] = background; cited from earlier work
[6] = rat, 0.1 Hz, 0.2 ms, supramaximal stimulus, mean ± SEM (n = 4)

Compound | IC90 [2, 6] | Recovery 0-75% (neuromuscular block; 2 × ED90, beagle dog, n = 4) | Recovery index (neuromuscular block; 2 × ED90, beagle dog, n = 4) | Time to max. recovery (neuromuscular block; 2 × ED90, beagle dog, n = 4) | T4/T1 at max. recovery (neuromuscular block; 2 × ED90, beagle dog, n = 4) | Clinical duration (neuromuscular block; 2 × ED90, beagle dog) | Onset time (neuromuscular block; 2 × ED90, beagle dog) | Time to 80% block (neuromuscular block; 2 × ED90, beagle dog) | ED90 (neuromuscular block) | ED95 (neuromuscular block) | IC90 ([1]; Cavia porcellus) | time for the 75% neuromuscular block to decrease to 25% ([3]; guinea-pigs) | ED50 [3] | ED90 [3] | Clinical duration [3] | Recovery 25%-75% [3] | Onset time [3] | IC90 ([2]; Rattus norvegicus) | cardiovascular side effects / stability [5] | other results
7',12dihydroxy-6,6dimethoxy-2,2',2trimethyltubocuraranium chloride hydrochloride [Tubocurarine chloride] | 1020 ± 10 nM |  |  |  |  |  |  |  |  |  |  |  |  |  |  |  |  |  |  | IC90 ([1]; guinea-pig, 0.1 Hz, 0.2 ms, supramaximal stimulus, mean ± SEM (n = 4)): 1330 ± 90 nM
C=CC[N+]1([C@H]2C[C@H]3[C@@H]4CC[C@H]5C[C@H](OC(C)=O)[C@@H](N6CCC7(CC6)OCCO7)C[C@]5(C)[C@H]4CC[C@]3(C)[C@H]2OC(C)=O)CCCC1.[Br-] [Example 8, 1-[3α,17β-bis(acetyloxy)-2β-(1,4-dioxa-8-azaspiro[4.5]dec-8-yl)-5α-androstan-16β-yl]-1-(2-propenyl)pyrrolidinium bromide] |  | 16.2 ± 0.9 min | 3.4 ± 0.4 min | 24.4 ± 2.0 min | 91.3 ± 4.8 | 12.6 ± 0.6 min | 75.3 ± 5.9 s | 48.4 ± 2.9 s | 0.0105 ± 0.0002 mg/kg | 0.0111 ± 0.0002 mg/kg | 900 ± 30 nM | 10.1 min | 0.034 ± 0.002 mg/kg | 0.048 ± 0.0027 mg/kg | 10.1 ± 1.32 min | 2.4 ± 0.3 min | 0.9 ± 0.18 min | 8370 ± 260 nM |  | Tetanic fade (neuromuscular block; 2 × ED90, beagle dog, n = 4, P n.s. (not significant)): 97.5 ± 1.9; neuromuscular blocking (inhibitory) effect compared with known muscle relaxants ([1]; guinea-pig, in vitro): of the similar order of magnitude as that of other known, clinically employed muscle relaxants; duration of action compared with reference substances ([3]; guinea-pigs, in vivo): shorter than those of other reference substances with similar chemical structure; onset of action compared with reference substances ([3]; guinea-pigs, in vivo): more rapid; onset of action ([4]; in vitro): rapid; reversibility by wash-out ([4]; in vitro): easily reversible by wash-out; antagonism of the effect ([4]; with neostigmine methyl sulfate or edrophonium chloride): could also be antagonized with neostigmine methyl sulfate; neuromuscular blocking (inhibitory) effect compared with known muscle relaxants ([2]; rat, in vitro): of the similar order of magnitude as that of other known, clinically employed muscle relaxants; block of the vagus (vagus nerve; 8×ED90 dose): did not block the vagus; inhibition of the effects of electrical stimulation of the vagus on heart rate or blood pressure (vagus nerve; 8×ED90 dose): did not inhibit the effects of electrical stimulation of this nerve on heart rate or blood pressure; change in heart rate or blood pressure on electrical stimulation of the vagus (vagus nerve; in vivo cat experiments): no significant change in heart rate or blood pressure; effect on the vagus (vagus nerve; in vivo cat experiments): no stimulating effect on the vagus; Decrease in heart rate (vagus nerve; vagal stimulation, anesthetized cat, mean ± SEM (n = 4), control 14 ± 1.8): 15 ± 2.9%; Decrease in blood pressure (vagus nerve; vagal stimulation, anesthetized cat, mean ± SEM (n = 4), control 40.0 ± 8.1): 32.0 ± 6.6 Hgmm
CC(=O)O[C@H]1C[C@@H]2CC[C@@H]3[C@H](CC[C@@]4(C)[C@H]3C[C@H]([N+]3(C)CCCCC3)[C@@H]4OC(C)=O)[C@@]2(C)C[C@@H]1[N+]1(C)CCCCC1 [Pancuronium bromide, 1'-[3α,17β-bis(acetyloxy)-5α-androstane-2β,16β-diyl]bis[1-methylpiperidinium]dibromide] |  |  |  |  |  |  |  |  |  |  | 290 ± 10 nM | 45.6 min | 0.01 ± 0.0011 mg/kg | 0.015 ± 0.0019 mg/kg | 45.6 ± 5.68 min | 14.8 ± 2.45 min | 1.1 ± 0.31 min | 6360 ± 30 nM |  | inhibition of the decrease of blood pressure caused by vagal stimulation (vagus): 50%; inhibition of the decrease of heart rate caused by vagal stimulation (vagus): 50%
CC(=O)O[C@H]1C[C@@H]2CC[C@@H]3[C@H](CC[C@@]4(C)[C@H]3C[C@H](N3CC[N+](C)(C)CC3)[C@@H]4OC(C)=O)[C@@]2(C)C[C@@H]1N1CC[N+](C)(C)CC1.[Br-].[Br-] [Pipecuronium bromide, 4,4'-[3α,17β-bis(acetyloxy)-5α-androstane-2β,16β-diyl]bis[1,1-dimethylpiperazinium]dibromide] | 1500 ± 40 nM |  |  |  |  |  |  |  |  |  |  | 60.6 min | 0.004 ± 0.0007 mg/kg | 0.006 ± 0.0007 mg/kg | 60.6 ± 9.28 min | 24.6 ± 3.71 min | 1.5 ± 0.08 min |  | exceed those of pancuronium bromide or vecuronium bromide | IC90 ([1]; Cavia porcellus, guinea-pig, 0.1 Hz, 0.2 ms, supramaximal stimulus, mean ± SEM (n = 4)): 80 ± 3 nM
CC(=O)O[C@H]1C[C@@H]2CC[C@@H]3[C@H](CC[C@@]4(C)[C@H]3C[C@H]([N+]3(C)CCCCC3)[C@@H]4OC(C)=O)[C@@]2(C)C[C@@H]1N1CCCCC1 [Vecuronium bromide, 1-[3α,17β-bis(acetyloxy)-2β-(1-piperidinyl)androstan-16β-yl]1-methylpiperidinium bromide hydrochloride] |  | 24.9 ± 3.0 min | 6.6 ± 1.1 min | 31.4 ± 4.3 min | 71.0 ± 2.9 | 17.8 ± 1.1 min | 115.1 ± 8.6 s | 62.8 ± 4.5 s | 0.0358 ± 0.0009 mg/kg | 0.0379 ± 0.001 mg/kg | 250 ± 10 nM |  | 0.007 ± 0.0019 mg/kg | 0.011 ± 0.002 mg/kg | 26.6 ± 4.61 min | 9.0 ± 2.35 min | 1.3 ± 0.51 min | 8720 ± 380 nM | lack of cardiovascular side effects | 
